Source: the supplement of paper PMC10307832

Tests used:
Assay in all cases: relative viability (nuclei count vs DMSO), 5 days (fraction); higher = more cells survive
RO-3306 + AZD7762 = compound: C1=CC2=C(C=CC(=C2)C=C3C(=O)NC(=NCC4=CC=CS4)S3)N=C1 [RO-3306] + NC(=O)Nc1cc(-c2cccc(F)c2)sc1C(=O)N[C@H]1CCCNC1 [AZD7762] (partner 0.2 µM)
How it was run: (§1)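 Lung cancer cell lines, seeded in 1536-well plates, were treated the following day by pin tool with a single drug or with five library-drug doses (not always all listed) in √10 steps on top of a fixed anchor-drug dose. Cells were fixed and nuclei stained in one step after 5 days, and nuclei were counted. Relative viability is the nuclei count for treated wells divided by that for vehicle wells, reported as medians of duplicate plates.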

RO-3306 + Lapatinib = compound: C1=CC2=C(C=CC(=C2)C=C3C(=O)NC(=NCC4=CC=CS4)S3)N=C1 [RO-3306] + CS(=O)(=O)CCNCc1ccc(-c2ccc3ncnc(Nc4ccc(OCc5cccc(F)c5)c(Cl)c4)c3c2)o1 [Lapatinib] (partner 2 µM)
How it was run: as §1

RO-3306 + Vorinostat = compound: C1=CC2=C(C=CC(=C2)C=C3C(=O)NC(=NCC4=CC=CS4)S3)N=C1 [RO-3306] + O=C(CCCCCCC(=O)Nc1ccccc1)NO [Vorinostat] (partner 1 µM)
How it was run: as §1

RO-3306 + Luminespib = compound: C1=CC2=C(C=CC(=C2)C=C3C(=O)NC(=NCC4=CC=CS4)S3)N=C1 [RO-3306] + CCNC(=O)c1noc(-c2cc(C(C)C)c(O)cc2O)c1-c1ccc(CN2CCOCC2)cc1 [Luminespib] (partner 0.01 µM)
How it was run: as §1

| Cell Line | relative viability (RO-3306 + AZD7762; first compound 0.01 µM) | relative viability (RO-3306 + AZD7762; first compound 0.03162 µM) | relative viability (RO-3306 + AZD7762; first compound 0.1 µM) | relative viability (RO-3306 + AZD7762; first compound 0.3162 µM) | relative viability (RO-3306 + AZD7762; first compound 1 µM) | relative viability (RO-3306 + Lapatinib; first compound 0.01 µM) | relative viability (RO-3306 + Lapatinib; first compound 0.03162 µM) | relative viability (RO-3306 + Lapatinib; first compound 0.1 µM) | relative viability (RO-3306 + Lapatinib; first compound 0.3162 µM) | relative viability (RO-3306 + Lapatinib; first compound 1 µM) | relative viability (RO-3306 + Vorinostat; first compound 0.01 µM) | relative viability (RO-3306 + Vorinostat; first compound 0.03162 µM) | relative viability (RO-3306 + Vorinostat; first compound 0.1 µM) | relative viability (RO-3306 + Vorinostat; first compound 0.3162 µM) | relative viability (RO-3306 + Vorinostat; first compound 1 µM) | relative viability (RO-3306 + Luminespib; first compound 0.01 µM) | relative viability (RO-3306 + Luminespib; first compound 0.03162 µM) | relative viability (RO-3306 + Luminespib; first compound 0.1 µM) | relative viability (RO-3306 + Luminespib; first compound 0.3162 µM) | relative viability (RO-3306 + Luminespib; first compound 1 µM) |
| --- | --- | --- | --- | --- | --- | --- | --- | --- | --- | --- | --- | --- | --- | --- | --- | --- | --- | --- | --- | --- |
| HCC-366 | 0.242 | 0.215 | 0.254 | 0.347 | 0.417 | 1.1 | 0.939 | 0.91 | 1.09 | 0.759 | 0.454 | 0.279 | 0.25 | 0.378 | 0.308 |  |  |  |  |  |
| HCC-827 | 0.234 | 0.18 | 0.216 | 0.197 | 0.196 | 0.226 | 0.21 | 0.17 | 0.214 | 0.17 | 0.946 | 0.7 | 0.881 | 0.789 | 0.859 | 0.502 | 0.433 | 0.588 | 0.586 | 0.786 |
| HOP-62 | 0.695 | 0.469 | 0.466 | 0.567 | 0.451 | 1.47 | 0.771 | 0.93 | 1.04 | 1.06 | 0.615 | 0.44 | 0.486 | 0.611 | 0.638 | 1.02 | 0.926 | 0.976 | 0.925 | 0.894 |
| IA-LM |  |  |  |  |  | 0.816 |  | 0.665 | 0.698 | 0.388 | 1.09 | 0.519 | 0.973 | 0.947 | 0.749 |  |  |  |  |  |
| LCLC-103H | 0.732 | 0.695 | 0.795 | 0.819 | 0.725 |  |  |  |  |  | 0.903 | 0.663 | 0.796 | 0.812 | 0.766 | 0.872 | 0.882 | 0.955 | 0.93 | 1.03 |
| NCI-H441 | 1.02 | 0.782 | 1.21 | 0.948 | 1.03 |  |  |  |  |  | 0.888 | 0.495 | 0.837 | 1.23 | 0.638 | 0.248 | 0.317 | 0.279 | 0.313 | 0.315 |
| NCI-H520 |  |  |  |  |  | 1.01 | 0.638 | 0.806 | 0.734 | 0.754 | 0.779 | 0.589 | 0.676 | 0.693 | 0.664 | 0.252 | 0.212 | 0.249 | 0.218 | 0.23 |
| NCI-H522 | 0.914 | 0.734 | 0.914 | 0.89 | 0.843 |  |  |  |  |  | 0.93 | 0.792 | 0.98 | 0.959 | 0.801 | 1.04 | 1.12 | 1.13 | 1.14 | 1.22 |
| NCI-H661 |  |  |  |  |  | 0.412 | 0.469 | 0.532 | 0.536 | 0.605 | 0.875 | 0.727 | 0.801 | 0.773 | 0.807 | 0.869 | 1.02 | 0.934 | 0.953 | 0.936 |
| NCI-H1299 |  |  |  |  |  | 1 | 1.03 | 0.977 | 0.977 | 0.986 |  |  |  |  |  |  |  |  |  |  |
| NCI-H1563 |  |  |  |  |  | 1.03 | 0.911 | 0.862 | 0.979 | 0.922 |  |  |  |  |  | 0.516 | 0.519 | 0.6 | 0.533 | 0.507 |
| NCI-H1623 |  |  |  |  |  |  |  |  |  |  |  |  |  |  |  | 0.574 | 0.451 | 0.617 | 0.471 | 0.5 |
| NCI-H1648 | 0.809 |  | 0.697 | 0.643 | 0.625 |  |  |  |  |  | 0.348 |  | 0.291 | 0.408 | 0.351 |  |  |  |  |  |
| NCI-H1650 |  |  |  |  |  | 0.595 | 0.632 | 0.695 | 1.03 | 0.683 | 0.648 | 0.545 | 0.472 | 0.558 | 0.613 | 0.183 | 0.217 | 0.2 | 0.227 | 0.224 |
| NCI-H1703 | 0.137 | 0.102 | 0.125 |  | 0.124 | 1.25 | 0.858 | 1.03 | 0.831 | 1.6 |  |  |  |  |  |  |  |  |  |  |
| NCI-H1792 | 0.76 |  | 0.657 | 0.709 | 0.661 | 0.971 |  | 0.881 | 0.903 | 0.499 |  |  |  |  |  | 0.587 |  | 0.568 | 0.349 | 0.341 |
| NCI-H2009 |  |  |  |  |  | 0.805 | 0.887 | 0.867 | 1.07 | 0.872 | 0.797 | 0.739 | 0.677 | 0.81 | 0.712 | 1.1 | 0.979 | 1.07 | 0.992 | 0.976 |
| NCI-H2023 |  |  |  |  |  | 0.769 | 0.645 | 0.822 | 1.04 | 0.683 | 0.684 | 0.524 | 0.651 | 0.806 | 0.5 | 0.681 | 0.723 | 0.643 | 0.534 | 0.396 |
| NCI-H2228 |  |  |  |  |  | 1.24 | 0.574 | 0.942 | 0.826 | 0.542 | 0.648 | 0.737 | 0.615 | 0.612 | 0.368 | 0.2 | 0.148 | 0.147 | 0.14 | 0.255 |
| NCI-H2342 | 0.437 | 0.448 | 0.524 | 0.536 | 0.464 |  |  |  |  |  | 0.691 | 0.687 | 0.735 | 0.751 | 0.76 | 0.742 | 0.627 | 0.727 | 0.759 | 0.73 |
| SK-LU-1 |  |  |  |  |  | 1.07 | 0.812 | 0.842 | 0.902 | 0.797 | 0.854 | 0.711 | 0.786 | 0.786 | 0.605 | 0.184 | 0.194 | 0.179 | 0.202 | 0.166 |
| SK-MES-1 |  |  |  |  |  | 0.449 | 0.472 | 0.444 | 0.505 | 0.471 | 1.35 | 1.12 | 1.12 | 1.32 | 1.08 | 0.708 | 0.973 | 0.705 | 0.605 | 0.968 |
| SW 900 | 0.652 | 0.511 | 0.653 | 0.587 | 0.626 |  |  |  |  |  | 0.574 | 0.272 | 0.462 | 0.535 | 0.34 | 0.148 | 0.181 | 0.172 | 0.175 | 0.183 |
| SW 1573 |  |  |  |  |  | 1.11 | 1.01 | 1.17 | 1.12 | 0.947 | 0.67 | 0.598 | 0.738 | 0.715 | 0.763 | 0.205 | 0.218 | 0.198 | 0.302 | 0.217 |
